# pKd: −log10 of the molar value. Square brackets hold non-standard residues; d marks the D form. Peptide text beside a SMILES is read from it. * marks the point of attachment. C(CF3)3 = FC(F)(F)C(C(F)(F)F)(C(F)(F)F)*; Hyp = O=C(O)[C@@H]1C[C@@H](O)CN1; hSer = N[C@@H](CCO)C(=O)O
# Target: T1, Estradiol-bound Estrogen receptor [255-595] (Homo sapiens, UniProt P03372)
# T1 construct: 255-595
# T1 sequence (P03372 whole entry): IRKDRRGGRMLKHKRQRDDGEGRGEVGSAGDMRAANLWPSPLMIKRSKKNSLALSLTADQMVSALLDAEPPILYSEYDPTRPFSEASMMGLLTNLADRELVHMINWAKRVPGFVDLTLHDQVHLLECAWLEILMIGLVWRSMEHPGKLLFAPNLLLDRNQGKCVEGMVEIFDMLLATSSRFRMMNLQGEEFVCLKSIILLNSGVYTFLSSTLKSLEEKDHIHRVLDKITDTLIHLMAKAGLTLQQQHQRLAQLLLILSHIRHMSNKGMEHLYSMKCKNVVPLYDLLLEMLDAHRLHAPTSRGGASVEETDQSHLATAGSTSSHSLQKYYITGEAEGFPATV
# Assay: Fluorescence Polarization Assay
# Conditions: pH 7.4; 25 °C
# Protocol: Peptide concentrations were determined by the absorbance at 492 nm, using a fluorescein extinction coefficient of 83000. Fluorescence polarization assays were conducted in 96-well round-bottom black opaque plates (Costar) using 2-fold serial dilutions of the ERα LBD, to final protein concentrations from 10 to 0.0098 μM, in PBS containing 0.1 mM DTT, 20 μM 17β-estradiol, 0.04 mg/mL BSA, and 100 nM fluorescein-labeled peptide. Solutions were incubated in the dark for 30 min at room temperature before being read on a PerkinElmer Fusion plate reader using a 485 nm fluorescein excitation filter and a 535 nm emission filter with a polarizer.
row,pKd,Molecule
1,< 3.82,CC[C@H](C)[C@H](NC(=O)[C@H](CCCCN)NC(=O)[C@H](Cc1cnc[nH]1)NC(=O)[C@H](CCCNC(=N)N)NC(=O)[C@H](CCC(=O)O)NC(=O)[C@@H](NC(=O)[C@H](CC(C)C)NC(=O)[C@@H](N)CS)[C@@H](C)O)C(=O)N1C[C@H](OC(C(F)(F)F)(C(F)(F)F)C(F)(F)F)C[C@H]1C(=O)N[C@@H](Cc1cnc[nH]1)C(=O)N[C@@H](CCCNC(=N)N)C(=O)N[C@@H](CC(C)C)C(=O)N[C@@H](CC(C)C)C(=O)N[C@@H](CCC(N)=O)C(=O)N[C@@H](CCC(=O)O)C(=O)O (H-CLTERHKI[Hyp](C(CF3)3)HRLLQE-OH)
2,5.66,CC[C@H](C)[C@H](NC(=O)[C@H](CCCCN)NC(=O)[C@H](Cc1cnc[nH]1)NC(=O)[C@H](CCCNC(=N)N)NC(=O)[C@H](CCC(=O)O)NC(=O)[C@@H](NC(=O)[C@H](CC(C)C)NC(=O)[C@@H](N)CS)[C@@H](C)O)C(=O)N[C@@H](CC(C)C)C(=O)N[C@@H](Cc1cnc[nH]1)C(=O)N[C@@H](CCCNC(=N)N)C(=O)N[C@@H](CCOC(C(F)(F)F)(C(F)(F)F)C(F)(F)F)C(=O)N[C@@H](CC(C)C)C(=O)N[C@@H](CCC(N)=O)C(=O)N[C@@H](CCC(=O)O)C(=O)O (H-CLTERHKILHR[hSer](C(CF3)3)LQE-OH)
3,5.15,CC(C)C[C@H](NC(=O)[C@H](CC(C)C)NC(=O)[C@H](CCCNC(=N)N)NC(=O)[C@H](Cc1cnc[nH]1)NC(=O)[C@H](CC(C)C)NC(=O)[C@H](CCOC(C(F)(F)F)(C(F)(F)F)C(F)(F)F)NC(=O)[C@H](CCCCN)NC(=O)[C@H](Cc1cnc[nH]1)NC(=O)[C@H](CCCNC(=N)N)NC(=O)[C@H](CCC(=O)O)NC(=O)[C@@H](NC(=O)[C@H](CC(C)C)NC(=O)[C@@H](N)CS)[C@@H](C)O)C(=O)N[C@@H](CCC(N)=O)C(=O)N[C@@H](CCC(=O)O)C(=O)O [CLTERHK(Hse(C4F9))LHRLLQE] (H-CLTERHK[hSer](C(CF3)3)LHRLLQE-OH)
4,4.37,CC[C@H](C)[C@H](NC(=O)[C@H](CCCCN)NC(=O)[C@H](Cc1cnc[nH]1)NC(=O)[C@H](CCCNC(=N)N)NC(=O)[C@H](CCC(=O)O)NC(=O)[C@@H](NC(=O)[C@H](CC(C)C)NC(=O)[C@@H](N)CS)[C@@H](C)O)C(=O)N[C@H](CCOC(C(F)(F)F)(C(F)(F)F)C(F)(F)F)C(=O)N[C@@H](Cc1cnc[nH]1)C(=O)N[C@@H](CCCNC(=N)N)C(=O)N[C@@H](CC(C)C)C(=O)N[C@@H](CC(C)C)C(=O)N[C@@H](CCC(N)=O)C(=O)N[C@@H](CCC(=O)O)C(=O)O
5,6.00,H-CLTERHKILHRLLQE-OH

# — BindingDB's records for doi:10.1021/acs.biochem.6b01020 (University of Delaware, 2017)
